Earlier results on one molecule are cited in US20090105490A1, “Polymorphic forms of ramelteon and processes for preparation thereof” (priority 2007, published 2009).

Each structure is given as a SMILES string. Read-outs that look alike come from different tables or passages of the source.

One series deals with T1, melatonin MT2 receptor (Homo sapiens, UniProt P49286).
T1 sequence (P49286 1-362): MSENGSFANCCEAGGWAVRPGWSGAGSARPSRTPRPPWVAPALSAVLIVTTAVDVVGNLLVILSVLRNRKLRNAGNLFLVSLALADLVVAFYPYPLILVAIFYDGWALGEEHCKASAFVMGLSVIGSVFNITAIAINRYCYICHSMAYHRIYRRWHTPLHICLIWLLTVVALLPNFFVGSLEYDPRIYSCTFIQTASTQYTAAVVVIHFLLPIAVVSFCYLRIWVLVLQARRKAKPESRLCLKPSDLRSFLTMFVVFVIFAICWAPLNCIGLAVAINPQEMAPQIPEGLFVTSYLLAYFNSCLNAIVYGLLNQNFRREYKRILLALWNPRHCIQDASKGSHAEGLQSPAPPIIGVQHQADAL
The following applies: melatonin receptor agonist.

Another series addresses melatonin MT1 receptor (Homo sapiens, UniProt P48039). The conditions noted are these: melatonin receptor agonist.
The next series deals with MT3 receptor. The conditions noted are these: MT1 and MT2 versus MT3.

Chain of melatonin MT1 receptor (P48039 whole entry): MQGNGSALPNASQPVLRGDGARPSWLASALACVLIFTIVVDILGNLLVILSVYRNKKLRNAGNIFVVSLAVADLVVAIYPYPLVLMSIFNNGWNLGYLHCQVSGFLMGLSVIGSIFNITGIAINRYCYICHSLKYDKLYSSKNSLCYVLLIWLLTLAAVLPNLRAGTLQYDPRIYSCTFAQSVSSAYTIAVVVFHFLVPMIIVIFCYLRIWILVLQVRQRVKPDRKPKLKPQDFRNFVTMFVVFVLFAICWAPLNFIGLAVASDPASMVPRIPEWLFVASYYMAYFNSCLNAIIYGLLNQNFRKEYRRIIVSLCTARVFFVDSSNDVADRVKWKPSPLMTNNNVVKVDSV

For `CCC(=O)NCC[C@@H]1CCc2ccc3c(c21)CCO3` [Ramelteon, (S)-N-[2-(1,6,7,8-tetrahydro-2H-indeno-[5,4-b]furan-8-yl)ethyl]propionamide], the “affinity for melatonin MT2 receptor” value at melatonin MT2 receptor was “high affinity”. In addition, the solubility result reads like this: (1-octanol) “freely soluble”; (DMSO) “freely soluble”; (aqueous buffers) “slightly soluble”; (ethanol) “freely soluble”; (methanol) “freely soluble”; (water) “slightly soluble”. The “affinity for melatonin MT1 receptor” value at melatonin MT1 receptor was “high affinity”. Moreover, the “selectivity over the MT3 receptor” value with MT3 receptor is reported as “selectivity over the MT3 receptor”.
